Source: ChEMBL document CHEMBL5649166, “RIP3 induces apoptosis independent of pronecrotic kinase activity” (Mol Cell, 2014)

What was measured:
[1] = target: T1, Protein kinase C epsilon type (Homo sapiens) (UniProt Q02156); test: Inhibition of human PKCepsilon using ERMRPRKRQGSVRRRV as substrate at 1 uM in presence of 32P-ATP by Hotspot assay relative to control; values are per cent of control
T1 sequence (whole entry): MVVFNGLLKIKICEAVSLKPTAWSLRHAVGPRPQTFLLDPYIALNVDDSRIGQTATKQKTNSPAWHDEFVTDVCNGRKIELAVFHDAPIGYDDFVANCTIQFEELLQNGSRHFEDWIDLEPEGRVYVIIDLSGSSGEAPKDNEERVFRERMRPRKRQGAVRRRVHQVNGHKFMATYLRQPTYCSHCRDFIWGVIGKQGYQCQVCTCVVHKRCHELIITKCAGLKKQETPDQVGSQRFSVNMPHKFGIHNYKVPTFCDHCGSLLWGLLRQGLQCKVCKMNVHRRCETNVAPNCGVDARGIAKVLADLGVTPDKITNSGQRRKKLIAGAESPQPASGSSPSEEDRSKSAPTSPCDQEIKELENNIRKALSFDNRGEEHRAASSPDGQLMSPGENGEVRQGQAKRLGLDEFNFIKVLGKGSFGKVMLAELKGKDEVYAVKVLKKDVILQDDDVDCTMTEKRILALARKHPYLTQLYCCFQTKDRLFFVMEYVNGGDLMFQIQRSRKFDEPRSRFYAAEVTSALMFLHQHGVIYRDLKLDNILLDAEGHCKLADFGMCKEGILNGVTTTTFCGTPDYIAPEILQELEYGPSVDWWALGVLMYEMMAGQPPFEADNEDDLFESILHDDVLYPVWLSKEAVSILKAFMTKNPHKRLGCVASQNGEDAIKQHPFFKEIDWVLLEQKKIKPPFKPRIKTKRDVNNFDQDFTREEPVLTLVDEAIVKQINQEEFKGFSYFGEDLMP

[2] = target: T2, cGMP-dependent protein kinase 1 (Homo sapiens) (UniProt Q13976); test: Inhibition of human PKG1a using LRRASLG as substrate at 1 uM in presence of 32P-ATP by Hotspot assay relative to control; values are per cent of control
T2 sequence (whole entry): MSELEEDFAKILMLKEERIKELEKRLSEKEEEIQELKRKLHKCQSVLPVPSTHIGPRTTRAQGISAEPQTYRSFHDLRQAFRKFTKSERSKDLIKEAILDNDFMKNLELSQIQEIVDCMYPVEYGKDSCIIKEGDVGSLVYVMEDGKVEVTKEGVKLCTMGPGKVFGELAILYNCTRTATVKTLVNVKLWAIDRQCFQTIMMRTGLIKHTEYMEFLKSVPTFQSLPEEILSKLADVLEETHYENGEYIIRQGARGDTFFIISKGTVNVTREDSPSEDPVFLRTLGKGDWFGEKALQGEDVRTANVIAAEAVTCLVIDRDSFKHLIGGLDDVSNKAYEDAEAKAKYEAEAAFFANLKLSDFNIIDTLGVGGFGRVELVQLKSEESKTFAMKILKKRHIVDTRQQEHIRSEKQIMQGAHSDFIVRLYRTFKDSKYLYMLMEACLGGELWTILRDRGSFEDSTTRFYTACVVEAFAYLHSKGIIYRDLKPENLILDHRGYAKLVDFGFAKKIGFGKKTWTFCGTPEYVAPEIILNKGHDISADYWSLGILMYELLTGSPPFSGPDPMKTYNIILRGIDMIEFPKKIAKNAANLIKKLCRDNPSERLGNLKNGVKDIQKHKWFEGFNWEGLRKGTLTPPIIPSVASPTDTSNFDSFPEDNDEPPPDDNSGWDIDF

[3] = target: Mitogen-activated protein kinase 9 (Homo sapiens) (UniProt P45984); test: Inhibition of human JNK2 using ATF2 as substrate at 1 uM in presence of 32P-ATP by Hotspot assay relative to control; values are per cent of control
Chain of Mitogen-activated protein kinase 9 (Homo sapiens) (P45984 whole entry, looked up): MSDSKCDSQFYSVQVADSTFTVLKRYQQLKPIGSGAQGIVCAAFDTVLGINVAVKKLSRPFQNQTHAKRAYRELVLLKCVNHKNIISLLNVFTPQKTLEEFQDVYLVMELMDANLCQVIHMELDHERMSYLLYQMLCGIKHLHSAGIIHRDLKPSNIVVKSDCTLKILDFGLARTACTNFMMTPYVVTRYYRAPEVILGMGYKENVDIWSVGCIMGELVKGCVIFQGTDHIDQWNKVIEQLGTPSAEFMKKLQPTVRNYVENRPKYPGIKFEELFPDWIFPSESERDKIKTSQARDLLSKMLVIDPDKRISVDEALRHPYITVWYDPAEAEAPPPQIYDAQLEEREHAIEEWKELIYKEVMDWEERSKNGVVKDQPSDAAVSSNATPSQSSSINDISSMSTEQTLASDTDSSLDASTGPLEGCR

[4] = target: T3, G protein-coupled receptor kinase 3 (Homo sapiens) (UniProt P35626); test: Inhibition of human GRK3 using casein as substrate at 1 uM in presence of 32P-ATP by Hotspot assay relative to control; values are per cent of control
T3 sequence (whole entry): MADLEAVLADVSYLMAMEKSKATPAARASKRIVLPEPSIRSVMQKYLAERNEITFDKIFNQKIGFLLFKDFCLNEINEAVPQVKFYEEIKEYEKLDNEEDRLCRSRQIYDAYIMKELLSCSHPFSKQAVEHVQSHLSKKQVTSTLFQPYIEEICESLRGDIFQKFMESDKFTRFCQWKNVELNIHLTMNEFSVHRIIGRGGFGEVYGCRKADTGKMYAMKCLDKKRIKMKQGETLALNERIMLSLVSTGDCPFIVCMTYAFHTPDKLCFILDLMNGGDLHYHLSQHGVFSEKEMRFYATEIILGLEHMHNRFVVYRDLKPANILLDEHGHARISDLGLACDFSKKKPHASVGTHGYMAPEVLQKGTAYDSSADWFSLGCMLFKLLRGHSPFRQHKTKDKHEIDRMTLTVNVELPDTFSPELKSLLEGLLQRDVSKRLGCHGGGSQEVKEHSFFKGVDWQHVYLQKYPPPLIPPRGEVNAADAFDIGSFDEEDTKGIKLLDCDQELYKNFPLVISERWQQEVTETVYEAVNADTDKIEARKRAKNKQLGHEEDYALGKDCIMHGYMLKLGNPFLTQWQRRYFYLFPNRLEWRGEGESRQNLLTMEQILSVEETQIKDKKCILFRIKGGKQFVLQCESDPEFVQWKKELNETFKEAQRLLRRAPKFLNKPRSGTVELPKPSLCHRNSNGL

[5] = target: Myosin light chain kinase 2, skeletal/cardiac muscle (Homo sapiens) (UniProt Q9H1R3); test: Residual activity of human MLCK2/MYLK2 using KKLNRTLSFAEPG as substrate at 1 uM in presence of 32P-ATP by Hotspot assay relative to control
Chain of Myosin light chain kinase 2, skeletal/cardiac muscle (Homo sapiens) (Q9H1R3 whole entry): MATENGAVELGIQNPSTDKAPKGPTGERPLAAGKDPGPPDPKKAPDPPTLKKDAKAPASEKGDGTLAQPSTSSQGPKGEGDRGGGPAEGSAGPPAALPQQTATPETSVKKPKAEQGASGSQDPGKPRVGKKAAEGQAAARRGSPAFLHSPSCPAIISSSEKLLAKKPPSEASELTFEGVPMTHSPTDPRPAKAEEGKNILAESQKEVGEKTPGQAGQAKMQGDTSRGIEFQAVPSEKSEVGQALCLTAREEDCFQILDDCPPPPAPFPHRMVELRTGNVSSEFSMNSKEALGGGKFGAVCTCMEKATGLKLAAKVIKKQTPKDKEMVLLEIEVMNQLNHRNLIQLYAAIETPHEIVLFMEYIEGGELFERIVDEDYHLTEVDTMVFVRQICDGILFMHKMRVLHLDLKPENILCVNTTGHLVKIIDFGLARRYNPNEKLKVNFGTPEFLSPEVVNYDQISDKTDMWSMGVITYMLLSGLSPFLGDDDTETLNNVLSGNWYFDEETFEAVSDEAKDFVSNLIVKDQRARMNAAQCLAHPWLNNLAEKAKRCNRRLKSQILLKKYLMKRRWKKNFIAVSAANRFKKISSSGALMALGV

Cc1cc(-c2cnc(N)c3c(-c4ccc5scnc5c4)csc23)n(C)n1
residual activity [1]: 103%
residual activity [2]: 69.9%
residual activity [3]: 69.7%
residual activity [4]: 80.9%
residual activity [5]: 88.1%

CNC(=O)c1ccc2c(c1)ncn2-c1ccc(CC(=O)OC(C)(C)C)cc1
residual activity [1]: 96.7%
residual activity [2]: 90.1%
residual activity [3]: 96.6%
residual activity [4]: 108%
residual activity [5]: 88.9%

CC(C)S(=O)(=O)c1ccc2nccc(Nc3ccc4scnc4c3)c2c1
residual activity [1]: 96%
residual activity [2]: 90.4%
residual activity [3]: 106%
residual activity [4]: 99.5%
residual activity [5]: 94.8%
